Experimental findings from patent publication US20060183696A1, “Use of immune cell specific conjugates for treatment of inflammatory diseases of gastrointestinal tract” (Pliva-Istrazivacki Institut d.o.o., priority 2004, published 2006) are described below.

Like-named read-outs stand apart in the source and are kept apart here.

The nature of one series: in vivo. Conditions: male, BALB/CJ, mouse.
A further series has as its system TNBS induced colitis. Kind of series: TNBS-induced inflammatory bowel disease (colitis) in rats. The format is in vivo, rat. As to the method: Colitis is induced in male Wistar rats by intracolonic administration of 10-50 mg of TNBS in 0.25 ml of 50% ethanol. Two days prior to administration of TNBS animals are treated with various doses of sterolide (initially ranging from 0.5 to 10 mg/kg of the compound in 0.125% carboxymethyl cellulose in phosphate buffered saline and 1% DMSO) or vehicle control (0.125% carboxymethyl cellulose in phosphate buffered saline and 1% DMSO) or standard steroid such as for example budesonide (1 mg/kg) for 14 days after the TNBS is applied. Rats were sacrificed, blood samples werewere taken (at day 7 and 15 after application of TNBS) to obtain serum samples followed by macroscopic observation and histological evaluation to determine the degree of colonic inflammation. Macroscopic and histological evaluation of tissue damage was done blindly by pathologist. The criteria for assessing macroscopic damage and the numerical rating score are as follows: 0, no damage; 1, localized hyperemia and/or edema; 2, linear ulcer<half of the width of the colon; 3, linear ulcer>half of the width of the colon; 4, small circular ulcer (<1 cm); 5, circular ulcer between 1 and 2 cm; 6, circular ulcer>2 cm. Scores from individual animals were added together and divided by number of animals to get average […] damage. For histological evaluation of colonic injury, each colon is blindly scored according to the following criteria: A) Ulceration: 0, no ulcer, epithelization; 1, small ulcer<3 mm; 2, large ulcer>3 mm; B) Inflammation: 0, no inflammation; 1, mild; 2, moderate; 3, severe; C) Depth of lesion: 0, none; 1, submucosa; 2, muscularis propria; 3, serosa; D) Necrosis: 0, none; 1, mild; 2, severe; E) Granulomas: No, no granulomas; Yes, granulomas present. Maximum score, defined as a sum of all individual scores in this scoring system is 10+granulomas. In some experiments Lekotriene B4 (LTB4) and serum α1 acidic glycoprotein were also measured as an additional indicator of inflammatory activity. Likewise, in selected experiments full thickness specimens from inflamed tissue adjacent to the ulcerated area are excised for measurement of myeloperoxidase (MPO) activity.
Improvement in this experiment is defined by the lower average macroscopic damage and lower histological score, as well as lowering of LTBB4, serum α1 acidic glycoprotein and MPO activity in sterolide treated then in the group of […] (animals receiving vehicle alone).
FIG. 1A describes the macroscopic damage score of the colon in the rat model of TNBS induced colitis (Mann-Whitney Test). The macroscopic damage score of the colon is defined as 0—no damage; 1—localized hyperemia and/or edema; 2—linear ulcer<half of the width of the colon; 3—linear>half the width of the colon or small ulcer (<1 cm) 4—circular ulcer<1 cm; 5—circular between 1 and 2 cm; and 6—circular ulcer>2 cm. The compounds 1′, 2′ and 3′ as shown in the table below were compared against budesonide [a known drug useful for the treatment of Crohn's disease in humans] as a treatment control and just a vehicle as a no treatment control. The no treatment control gave a score of 4 while the treatment control, budesonide, at a dosage of 1 mg/kg gave a score of 2.
FIG. 1B describes effect of conjugates on histological damage score in TNBS induced colitis in rats (Mann-Whitney Test). The histological damage score is defined according to the following criteria: A) Ulceration: 0, no ulcer, epithelization; 1, small ulcer<3 mm; 2, large ulcer>3 mm; B) Inflammation: 0, no inflammation; 1, mild; 2, moderate; 3, severe; C) Depth of lesion: 0, none; 1, submucosa; 2, muscularis propria; 3, serosa; D) Necrosis: 0, none; 1, mild; 2, severe; E) Granulomas: No, no granulomas; Yes, granulomas present. Maximum score, defined as a sum of all individual scores in this scoring system is 10+granulomas. […]

Series [1] is described as follows: Oral bioavailability in rats (p.o. vs i.v., HPLC/MS-MS). Conditions: rat, in vivo.
Experimental: (§1) Male Sprague-Dawley rats weighing approximately 200 g were used. After weighing, each rat was given an earmark and placed into a cage. The day before the beginning of the study, animals were randomly distributed into 5 groups with 5 rats/group and placed into solid bottom cages, on wood dust-free bedding (VRF-1 Rodent's diet, Altromin Gmbh). During the experiment, the rats were maintained on a 12-h light-dark cycle. The rats were weighed and fasted for 12 hours prior to p.o. administration.
(§2) Compound 5 was administered p.o. in 0.125% carboxymethyl cellulose suspension. The dissolved substance was administered oral at a dose of 30 mg/kg body weight (b.w.), using 2.5 mL syringe (BD) and metal gavage. The administered volume was 10 mL/kg b.w.
(§3) Plasma and blood samples were obtained at the following time points after administration: 15, 30, 60, 120, 240, 360 and 480 minutes.
(§4) Blood samples were collected by puncturing the lateral tail vein. Prior to each blood sampling, animals were maintained in warming cabinets at 37° C. for 15 minutes. At each sampling time-point 50 μL of blood were collected and added to an Eppendorf test tube (1.5 mL) containing 50 μL demi water. Blood was collected according the time points stated in the protocol. Specimens were stored at −20° C. until analysis.
(§5) The concentrations of a compound 5 in the biological matrices were determined by a high performance liquid chromatography method using an acetonitrile and water (acidified by 0.1% formic acid) gradient as the chromatographic medium with tandem mass spectrometry detection (HPLC/MS-MS) (Guidance for Industry, Bioanalytical Method Validation, U.S. Department of Health and Human Services, Food and Drug Administration, May 2001).
(§6) Biological samples were prepared by deproteinization with acetonitrile, containing an internal standard. After centrifugation and evaporation of the supernatant fraction, samples were reconstituted in acetonitrile:water with addition of 0.1% formic acid.
(§7) HPLC separation was performed on a reverse phase C18 analytical column (Phenomenex C18(2)m 50×2 mm (3 μm) No 182700-5) with a guard column, maintained at ambient temperature, using a gradient of water:acetonitrile [0 min-1 min 10% acetonitrile, 2.5-3.5 minutes 80% acetonitrile, 3.5-5.6 min 10% acetonitrile with addition of 0.1% formic acid at flow rate 0.3 ml/min
(§8) MS-MS detection was performed in multi-resolution mode (MRM).
(§9) The concentration of the administered compound in biological matrices are calculated by the peak area ratios of compound 5 to an internal standard of roxithromycin using calibration curves and quality control samples.
(§10) The pharmacokinetic parameters were calculated using the PK solutions 2.0 software (Summit Research Services, Pharmacokinetics and Metabolism Software).
(§11) The pharmacokinetic parameters were calculated as disclosed herein to obtain the bioavailability wherein F=(AUC p.o.(0−∞)/AUC i.v. (0−∞))/(Di.v./Dp.o.).
For series [2] the following is noted: mouse, in vivo.
Experimental: (§12) For I.N. and P.O. administration the substance was dissolved in DMSO. 0.5% methyl cellulose was added up to 100% of the total volume. The solution was applied in a volume of 10 ml/kg b.w. (P.O.) and 10 ml/kg b.w. (I.N.). For I.V. administration the substance was dissolved in DMF. PBS was added up to 100% of the total volume. The solution was applied in a volume of 5 ml/kg b.w. (I.V.)
(§13) The experiment was carried out on approximately eight week old male BALB/CJ mice (IFFA CREDO, Lyon, France), weighing ˜25 g. Animals were weighed, marked and grouped a day before the beginning of the study. After weighing each mouse was given an earmark and placed into a cage (5 mice per cage). […]
(§14) The concentration of the administered compound in biological matrices are calculated by the peak area ratios of compound 1 to an internal standard of roxithromycin using calibration curves and quality control samples.
(§15) Non-compartmental analysis was used for pharmacokinetic analysis in plasma and tissue. The pharmacokinetic parameters were calculated based on average values at each time point using WinNonlin Professional Software, Version 4.1 (Pharsight).
(§16) The pharmacokinetic parameters were calculated as disclosed herein to obtain the bioavailability wherein F=(AUC p.o.(0−∞)/AUC i.v.(0−∞))/(Di.v./Dp.o.).
Series [3] can be described thus: AUC of compounds tested in mice or rats. Conditions: in vivo, po. Details: concentration or dose not given beside the values. The method, then:
The area under the curve (AUC) is calculated as: [formula] where n is the number of data points
AUC∞=AUC(0−t)+Cn/λz, where Cn is the last concentration and λz is the elimination rate constant (estimated from the later portion of the plasma/blood concentration vs. time profiles).

The conditions of series [4]: rat, in vivo; for Amounts detected in plasma and blood: po.
Experimental: as §1, §2, §3, §4, §5, §6, §7, §8, §9, §10, §11

Experimental for in vivo: as §12, §13, §14, §15, §16

Broadly, the bioavailability is dose-corrected exposure relative to a reference, in per cent. Turning to `CC[C@H]1OC(=O)[C@H](C)[C@@H](O[C@H]2C[C@@](C)(OC)[C@@H](O)[C@H](C)O2)[C@H](C)[C@@H](O[C@@H]2O[C@H](C)C[C@H](N(C)C)[C@H]2O)[C@](C)(O)C[C@@H](C)CN(CCCNC(=O)[C@@]2(O)[C@H](C)CC3C4CCC5=CC(=O)C=C[C@]5(C)[C@@]4(F)[C@@H](O)C[C@@]32C)[C@H](C)[C@@H](O)[C@]1(C)O` (stereo partly drawn) [2′], the bioavailability in “in vivo” is < 1%. Also, the “efficacy on macroscopic damage score compared with budesonide (1 mg/kg)” value in the series on TNBS induced colitis (FIG. 1A, 2 mg/kg) is listed as “comparable or superior efficacy to that of the standard steroid budesonide”. Moreover, the “efficacy on histological damage score compared with budesonide (1 mg/kg)” value in the series with TNBS induced colitis (FIG. 1B, 2 mg/kg) is “comparable or superior efficacy to that of the standard steroid budesonide”.

As a reminder, the AUC is the area under the concentration-time curve, a measure of exposure. Regarding `CC[C@H]1OC(=O)[C@H](C)[C@@H](O[C@H]2C[C@@](C)(OC)[C@@H](O)[C@H](C)O2)[C@H](C)[C@@H](O[C@@H]2O[C@H](C)C[C@H](N(C)C)[C@H]2O)[C@](C)(O)C[C@@H](C)CN(CCCNC(=O)Cc2c(C)n(C(=O)c3ccc(Cl)cc3)c3ccc(OC)cc23)[C@H](C)[C@@H](O)[C@]1(C)O` [3′], the “efficacy on macroscopic damage score compared with budesonide (1 mg/kg)” value with TNBS induced colitis (FIG. 1A, 10 mg/kg) is “comparable or superior efficacy to that of the standard steroid budesonide”. The “efficacy on histological damage score compared with budesonide (1 mg/kg)” value in the series with TNBS induced colitis (FIG. 1B, 10 mg/kg) is given as “comparable or superior efficacy to that of the standard steroid budesonide”. In series [1] (male), this compound registered a bioavailability of 3.7%. Besides, in series [1], the AUC came out at 2580 ng·h/mL and the bioavailability is < 10%.

Consider `CC[C@H]1OC(=O)[C@H](C)[C@@H](O[C@H]2C[C@@](C)(OC)[C@@H](O)[C@H](C)O2)[C@H](C)[C@@H](O[C@@H]2O[C@H](C)C[C@H](N(C)C)[C@H]2O)[C@](C)(O)C[C@@H](C)CN(CCCNC(=O)c2cccnc2Nc2cccc(C(F)(F)F)c2C)[C@H](C)[C@@H](O)[C@]1(C)O` [4′], for which the bioavailability in series [1] (male) was 6.9%; in series [1] it was < 10%. This compound also yielded an AUC in series [1] of 2180 ng·h/mL.

Take `CC[C@H]1OC(=O)[C@H](C)[C@@H](O)[C@H](C)[C@@H](O[C@@H]2O[C@H](C)C[C@H](N(C)C)[C@H]2O)[C@](C)(O)C[C@@H](C)CN(CCCNC(=O)Cc2c(C)n(C(=O)c3ccc(Cl)cc3)c3ccc(OC)cc23)[C@H](C)[C@@H](O)[C@]1(C)O` [9′]: the bioavailability in series [1] (male) came out at 2.5%. In addition, in series [1], the AUC was found to be 1130 ng·h/mL and the bioavailability is < 10%.

`CC[C@H]1OC(=O)[C@H](C)[C@@H](O[C@H]2C[C@@](C)(OC)[C@@H](O)[C@H](C)O2)[C@H](C)C(O[C@@H]2O[C@H](C)C[C@H](N(C)C)[C@H]2O)[C@](C)(O)C[C@@H](C)/C(=N\OCCCCCCNC(=O)CNS(=O)(=O)c2ccc(-n3nc(C(F)(F)F)cc3-c3ccc(C)cc3)cc2)[C@H](C)[C@@H](O)[C@]1(C)O` (stereo partly drawn) [11′]: in series [1] (male), the bioavailability is < 1%.

On to `CCCC1O[C@@H]2C[C@H]3[C@@H]4CCC5=CC(=O)C=C[C@]5(C)[C@H]4[C@@H](O)C[C@]3(C)[C@]2(C(=O)CO)O1` (stereo partly drawn) [Budesonide, budesonide, reference compound], for which, in the series on TNBS induced colitis (FIG. 1A, 1 mg/kg, score 0-6, no treatment control 4), the “macroscopic damage score of the colon” value amounted to 2. Moreover, the histological damage score with TNBS induced colitis (FIG. 1B, 1 mg/kg, maximum score 10, no treatment control 7,6) is recorded as 4,5.

`CC[C@H]1OC(=O)[C@H](C)[C@@H](O)[C@H](C)[C@@H](O)[C@](C)(O)C[C@@H](C)CN(CCCNCCC(=O)O[C@]2(C(=O)OC)[C@H](C)CC3C4C[C@H](F)C5=CC(=O)C=C[C@]5(C)[C@@]4(F)[C@@H](O)C[C@@]32C)[C@H](C)[C@@H](O)[C@]1(C)O` (stereo partly drawn) [Compound 1]: in series [2], the oral bioavailability result was “not measurable”. Further, the AUC in series [3] is 70 ng·h/mL.

On to `CC[C@H]1OC(=O)[C@H](C)[C@@H](O)[C@H](C)[C@@H](O)[C@](C)(O)C[C@@H](C)CN(CCCNC(=O)[C@H]2[C@H](C)CC3C4CCC5=CC(=O)C=C[C@]5(C)[C@@]4(F)[C@@H](O)C[C@@]32C)[C@H](C)[C@@H](O)[C@]1(C)O` (stereo partly drawn) [Compound 1′], for which the “efficacy on macroscopic damage score compared with budesonide (1 mg/kg)” value in the series with TNBS induced colitis (FIG. 1A, 2 mg/kg) is given as “comparable or superior efficacy to that of the standard steroid budesonide”; with TNBS induced colitis (FIG. 2, dosages ranging from 4 mg/kg to 0.5 mg/kg), “comparable or superior efficacy to that of the standard steroid budesonide”. In addition, the “efficacy on histological damage score compared with budesonide (1 mg/kg)” value in the series on TNBS induced colitis (FIG. 1B, 2 mg/kg) is “comparable or superior efficacy to that of the standard steroid budesonide”.

On to `CC[C@H]1OC(=O)C(C)[C@@H](O[C@H]2C[C@@](C)(OC)[C@@H](O)[C@H](C)O2)[C@H](C)[C@@H](O[C@@H]2O[C@H](C)C[C@H](N(C)C)[C@H]2O)[C@](C)(O)C[C@@H](C)/C(=N\OCCCCCNC(=O)[C@@]2(O)[C@H](C)CC3C4CCC5=CC(=O)C=C[C@]5(C)[C@@]4(F)[C@@H](O)C[C@]32C)[C@H](C)[C@@H](O)[C@]1(C)O` (stereo partly drawn) [Compound 5], for which, in series [4] (30 mg/kg), the oral bioavailability entry is on record as “not measurable”; the “Amounts detected in plasma and blood” value was “below the limits of detection”.

Take `CC[C@H]1OC(=O)[C@H](C)C(OC2C[C@@](C)(OC)[C@@H](O)[C@H](C)O2)[C@H](C)[C@@H](O[C@@H]2O[C@H](C)C[C@H](N(C)CCCNC(=O)[C@]3(O)[C@H](C)CC4C5CCC6=CC(=O)C=C[C@]6(C)[C@@]5(F)[C@@H](O)C[C@@]43C)[C@H]2O)[C@](C)(O)C[C@H](C)CN(C)[C@H](C)[C@@H](O)[C@]1(C)O` (stereo partly drawn) [Compound 6]: in series [3], the AUC came to 400 ng·h/mL.

Regarding `CC[C@H]1OC(=O)[C@H](C)[C@@H](O)[C@H](C)[C@@H](O)[C@](C)(O)C[C@@H](C)CN(CCCN(CC)CCC(=O)O[C@]2(C(=O)OC)[C@H](C)CC3C4C[C@H](F)C5=CC(=O)C=C[C@]5(C)[C@@]4(F)[C@@H](O)C[C@@]32C)[C@H](C)[C@@H](O)[C@]1(C)O` (stereo partly drawn) [Compound 8], the AUC in series [3] came to 60 ng·h/mL.

In the case of `CCCCN(CCCN1C[C@H](C)C[C@@](C)(O)[C@H](O)[C@@H](C)[C@H](O)[C@@H](C)C(=O)O[C@H](CC)[C@@](C)(O)[C@H](O)[C@H]1C)CCC(=O)O[C@]1(C(=O)OC)[C@H](C)CC2C3C[C@H](F)C4=CC(=O)C=C[C@]4(C)[C@@]3(F)[C@@H](O)C[C@@]21C` (stereo partly drawn) [Compound 9], the AUC in series [3] amounted to 390 ng·h/mL.

In series [3], `CCCN(CCCN1C[C@H](C)C[C@@](C)(O)[C@H](O)[C@@H](C)[C@H](O)[C@@H](C)C(=O)O[C@H](CC)[C@@](C)(O)[C@H](O)[C@H]1C)CCC(=O)O[C@]1(C(=O)OC)[C@H](C)CC2C3C[C@H](F)C4=CC(=O)C=C[C@]4(C)[C@@]3(F)[C@@H](O)C[C@@]21C` (stereo partly drawn) [Compound 10] came in with an AUC of 60 ng·h/mL.

In the case of `CC[C@H]1OC(=O)[C@H](C)[C@@H](O)[C@H](C)[C@@H](O)[C@](C)(O)C[C@@H](C)CN(CCCNC(=O)[C@H]2[C@H](C)CC3C4CCC5=CC(=O)C=C[C@]5(C)[C@@]4(F)[C@@H](O)C[C@@]32C)[C@H](C)[C@@H](O)[C@]1(C)O` (stereo partly drawn) [drawing 72], in series [4], the oral bioavailability entry is reported as “not measurable”; the “Amounts detected in plasma and blood” value is reported as “below the limits of detection”.
